Experimental findings from article PMC10385579, “Design, Synthesis, and Biological Evaluation of Indole-2-carboxamides as Potential Multi-Target Antiproliferative Agents” (Pharmaceuticals, 2023) are described below.

This test concerns caspase-3. Put plainly: Caspase 3 assay in A-549 cells. Type of test: cell-based, human. To be noted: for Caspase-3 Conc: untreated control 66 pg/mL. The protocol: Caspases play a crucial function in the induction and completion of apoptosis. Caspase-3 is an essential caspase that cleaves different proteins in cells, resulting in apoptosis. […]
4.2.5. Caspase-3 activation assay
Allow all reagents to reach room temperature before use. Gently mix all liquid reagents prior to use. Determine the number of 8-well strips needed for the assay. Insert these in the frame(s) for current use. Add 100 μl of the Standard Diluent Buffer to the zero standard wells. Well(s) reserved for chromogen blank should be left empty. Add 100 μl of standards and controls or diluted samples to the appropriate microtiter wells. The sample dilution chosen should be optimized for each experimental system. Tap gently on side of plate to mix. Cover wells with plate cover and incubate for 2 hours at room temperature. Thoroughly aspirate or decant solution from wells and discard the liquid, Wash wells 4 times. Pipette 100 μl of Caspase-3 (Active) Detection Antibody solution into each well except the chromogen blank(s). Tap gently on the side of the plate to mix. Cover plate with plate cover and incubate for 1 hour at room temperature. Thoroughly aspirate or decant solution from wells and discard the liquid, Wash wells 4 times. Add 100 μl Anti-Rabbit IgG HRP Working Solution to each well except the chromogen blank(s). Prepare the working dilution as described in Preparing IgG HRP. Cover wells with the plate cover and incubate for 30 minutes at room temperature. Thoroughly aspirate or decant solution from wells and discard the liquid. Wash wells 4 times. Add 100 μl of Stabilized Chromoge n to each well. The liquid in the wells will begin to turn blue. Incubate for 30 minutes at room temperature and in the dark. The incubation time for chromogen substrate is often determined by the microtiter plate reader used. Many plate readers have the capacity to record a maximum optical density (O.D.) of 2.0. The O.D. values should be monitored, and the substrate reaction stopped before the O.D. of the positive wells exceeds the limits of the instrument. The O.D. values at 450 nm can only be read after the Stop Solution has been added to each well. If using a reader that records only to 2.0 O.D., stopping the assay after […]
Add 100 μl of Stop Solution to each well. Tap side of plate gently to mix. The solution in the wells should change from blue to yellow. Read the absorbance of each well at 450 nm having blanked the plate reader against a chromogen blank composed of 100 μl each of Stabilized Chromogen and Stop Solution. Read the plate within 2 hours after adding the Stop Solution. Use a curve fitting software to generate the standard curve. A four-parameter algorithm provides the best standard curve fit. Read the concentrations for unknown samples and controls from the standard curve. Multiply value(s) obtained for sample(s) by the appropriate dilution factor to correct for the dilution in step 3. Samples producing signals greater than that of the highest standard should be diluted in Standard Diluent Buffer and reanalyzed.

With `O=C(NCC(c1ccccc1)c1c(-c2ccccc2)[nH]c2ccccc12)c1cc2cc(Cl)ccc2[nH]1` (stereo not drawn) [Compound Va, 5-Chloro-N-(2-phenyl-2-(2-phenyl-1H-indol-3-yl)ethyl)-1H-indole-2-carboxamide], the “Caspase-3 Conc” value worked out at 726 ± 6 pg/mL.
For `CO/C=C/c1c(C(=O)NCC(c2ccccc2)c2c(-c3ccccc3)[nH]c3ccccc23)[nH]c2ccc(Cl)cc12` (stereo not drawn) [Compound Vg, (E)-5-Chloro-3-(2-methoxyvinyl)-N-(2-phenyl-2-(2-phenyl-1H-indol-3-yl)ethyl)-1H-indole-2-carboxamide], the “Caspase-3 Conc” value turned out to be 528 ± 5 pg/mL. In addition, under “vs untreated control”, the “Caspase-3 Fold Change” value is ~8.
